Measurements as given in US11596641B2, “Methods and compositions for treating meibomian gland dysfunction” (priority 2020, dated 2023).
Counter-ions that a name gives are not always drawn. Like-named read-outs stand apart in the source and are kept apart here.

Experiment: pKa values
Format: physicochemical

pKa value (third printed) (third of three pKa values, hydrochloride) | pKa (first of three pKa values, read-out: pKa value (first given)) | pKa (second of three pKa values, read-out: pKa value) | pKa (third of three pKa values, read-out: pKa value (third printed)) | SMILES
9.3 |  |  |  | CN(C)c1ccc(O)c2c1C[C@H]1C[C@H]3[C@H](N(C)C)C(O)=C(C(N)=O)C(=O)[C@@]3(O)C(O)=C1C2=O [minocycline hydrochloride]
 | 3.5 | 7.6 | 9.2 | CN(C)c1ccc(O)c2c1C[C@H]1C[C@H]3[C@H](N(C)C)C(O)=C(C(N)=O)C(=O)[C@@]3(O)C(O)=C1C2=O [minocycline]
